The subject of one data set is human erythrocytes. The format is cell-based. How it is done:
In hemolysis assays, the ability of peptides at 128 μg/ml concentration to lyse human erythrocytes to release hemoglobin was measured. The peptides described here preferably have low hemolytic activity (0.2 to 3.8% hemolysis) in mammal body. […] These peptides are useful as antimicrobial drugs as they show little or no side effects at concentrations needed to kill bacteria.
Minimum inhibition concentrations (MICs) were tested by microbroth dilution method and Chain 104, 105 and 109 inhibited the growth of Escherichia coli (ATCC 25922), Staphylococcus aureus (ATCC 25923), Klebsiella pneumoniae (ATCC 10031) and Pseudomonas aeruginosa (ATCC 27853) between 1-8 μg/ml respectively (Tables 3a, 3b and 3c). The membranolytic activities of the peptides were tested by measuring the release of hemoglobin from erythrocytes of fresh blood donated by voluntiers. Hemoglobin levels were determined spectrometrically by taking OD at 540 nm by following the protocol of Schmidtchen et al., 2011.

For data set [1] the following is noted: +4, 25, 37 and 45° C., 14 days, PBS pH 7.4, activity by RDA. How it is done:
FIG. 8a. […] Antibacterial activity was tested by aliquoting 20 μg of peptides incubated at different temperature and activity was measured by zone of inhibition. Peptides at −20° C. served as control.
(§1) Thermal stability was evaluated by diluting peptides to the concentration of 2 mg/ml in PBS buffer (pH 7.4) and incubating at different temperatures, such as +4° C., 25° C. (RT), 37° C. and 45° C., peptides stored at −20° C. were used as control. After each time interval, 100 μl (2 mg/ml) of peptides were taken and stored at −20° C. for radial diffusion assay to determine the antibacterial activity (FIG. 8). Peptides were also tested by diluting them at different pH values starting from pH 4 to 9. The effect of NaCl on the antimicrobial activity was tested by adding different concentrations (50, 100 and 200 mM) of NaCl to MH medium and the minimum inhibitory concentrations were tested against 4 ATCC bacterial strains.

The conditions of data set [2]: pH 4 to 9, activity by RDA. As for the experimental part:
FIG. 9a. pH stability of chain peptides 104 and 105 was determined by radial diffusion assay (RDA). Different pH ranging from 4-9 was used to check the zone of inhibition.
as §1

For the next data set, the system named is MRSA strains. Description: MIC, synergistic activity with Ertapenem (4 μg/ml). In kind it is cell-based, S. aureus. The conditions noted are these: S. aureus COL with 4 μg/ml Ertapenem (synergistic activity). How it is done: (§2) Peptides Chain 104, Chain 105, Chain 201, Chain 308, Chain 310 were tested against antibiotic-sensitive strains of S. aureus RN4220 and methicillin resistant strains of S. aureus COL (MRSA). Chain peptides comprising of either L- or D-form amino acids were tested against these bacteria, and the D-form peptides were found have better activity compared to L-form (Table 6). Synergistic activity of chain peptides along with Ertapenem (4 μg/ml) was tested to know whether it will influence the activity against MRSA strains. […] Chain 310 has the best antibacterial activity against the MRSA strains with a MIC of 0.06 & 0.03 μg/ml along with Ertapenem (4 μg/ml) for both forms of L and D-peptides (Table 6).

For a further data set, the system named is S. aureus RN4220. In kind it is cell-based. The conditions noted are these: antibiotic sensitive strain S. aureus RN4220. How it is done:
Minimum inhibition concetrations (MICs) were determined against Escherichia coli (ATCC 25922), Staphylococcus aureus (ATCC 25923), Klebsiella pneumoniae (ATCC 10031) and Pseudomonas aeruginosa (ATCC 27853). Also clinical strains of E. coli, K. pneumoniae, E. cloacae, P. aeruginosa, Serratia marcescens, Proteus mirabilis, S. pneumoniae, Acinetobacter baumannii, A. johnsonii and S. aureus were used for MICs assays. Additionally, clinical strains of yeast including Candida albicans, C. glabrata, C. parapsilosis and C. quillermondiae were used. The susceptibility of these microorganisms to Chain peptides were determined using micro broth dilution assay. Colonies of the respective microorganism from Muller Hinton (MH) agar plates incubated overnight were suspended in MH broth media and final concentration of microorganism was adjusted to 5.0×10^5 cfu/ml. An aliquot of 10 μl of each Chain peptide, or gentamicin, tetracycline as reference antibiotics were added in differing concentrations along with 90 μl of bacterial suspension to 96 well polypropylene plates and incubated at 37° C. for 20 to 24 hours. Concentrations of Chain peptides and reference antibiotics ranged from 0.125 to 128 μg/ml and the MICs were recorded as the lowest concentration with no visual growth of bacteria. Similarly, antifungal MICs were tested in Potato dextrose broth.
as §2

For the next data set, the system named is S. aureus. Description: Antibacterial activity analysis of protein on LB plate. In kind it is cell-based. How it is done: Both folded and unfolded proteins were tested for antibacterial activity against S. aureus by pipetting 10 μg of protein on the S. aureus culture on an LB plate. The activity was also tested in folded and unfolded protein digested with trypsin in 0.01% acetic acid at concentrations of 30 and 60 μg/ml.

The values below come from patent US10457710B2, “Antimicrobial peptides, their variants and uses” (priority 2015, dated 2019).

Where a SMILES comes first, the peptide text is derived from it. Where no end group is shown, it is not given here. [ ]: non-standard residue; d: D form. Bounds are passed on as bounds.

With RKWRAMIRLHAKWLRK [Chain105], the “side effects to humans as tested by hemolysis assay” value (“side effects to humans as tested” below) in the data set on human erythrocytes is “little side effects to humans”. In addition, in data set [1], the “thermostability” value was “not hindered by pH or temperature even upto 45 °C for over 14 days”. Moreover, in data set [2], the “pH stability” value was “not hindered by pH”.
For KWIVWRWRFKR [Chain201] the same measures were “little side effects to humans”, “not hindered by pH or temperature even upto 45 °C for over 14 days” and “not hindered by pH”.
On the same counts, the results for RRLIWRRFKWLR [Chain204] are “little side effects to humans”, “not hindered by pH or temperature even upto 45 °C for over 14 days” and “not hindered by pH”.
Take KRKWRWLFKKL [Chain310]: in the data set on human erythrocytes, the “side effects to humans as tested” value was “little side effects to humans”.
Consider RLKWFLLFRKR [Chain308], for which, in the data set on human erythrocytes, the “side effects to humans as tested” value is “little side effects to humans”. The “thermostability” value in data set [1] was “not hindered by pH or temperature even upto 45 °C for over 14 days”. In addition, the “pH stability” value in data set [2] is reported as “not hindered by pH”.
Take `CC(C)C[C@@H](NC(=O)[C@@H](CCCCN)NC(=O)[C@@H](CCCCN)NC(=O)[C@@H](Cc1ccccc1)NC(=O)[C@@H](CC(C)C)NC(=O)[C@@H](Cc1c[nH]c2ccccc12)NC(=O)[C@@H](CCCNC(=N)N)NC(=O)[C@@H](Cc1c[nH]c2ccccc12)NC(=O)[C@@H](CCCCN)NC(=O)[C@@H](CCCNC(=N)N)NC(=O)[C@H](N)CCCCN)C(=O)O` [310 D] (H-[dK][dR][dK][dW][dR][dW][dL][dF][dK][dK][dL]-OH): the “Minimum inhibitory concentration (MICs), S. aureus COL + 4 μg/ml Ertapenem” value in the data set on MRSA strains was less than 0.03 µg/mL. Besides, in the data set on S. aureus RN4220, the “Minimum inhibitory concentration (MICs), S. aureus RN4220” value was more than 64 µg/mL.
Turning to WWRLHAKWKLW [Chain109], the “side effects to humans as tested” value with human erythrocytes is reported as “little side effects to humans”.
In the case of `CC[C@@H](C)[C@@H](NC(=O)[C@@H](Cc1c[nH]c2ccccc12)NC(=O)[C@H](N)CCCCN)C(=O)N[C@@H](C(=O)N[C@H](Cc1c[nH]c2ccccc12)C(=O)N[C@H](CCCNC(=N)N)C(=O)N[C@H](Cc1c[nH]c2ccccc12)C(=O)N[C@H](CCCNC(=N)N)C(=O)N[C@H](Cc1ccccc1)C(=O)N[C@H](CCCCN)C(=O)N[C@H](CCCNC(=N)N)C(=O)O)C(C)C` [201 D] (H-[dK][dW][dI][dV][dW][dR][dW][dR][dF][dK][dR]-OH), the “Minimum inhibitory concentration (MICs), S. aureus COL + 4 μg/ml Ertapenem” value in the data set with MRSA strains was determined as 1 µg/mL. Further, the “Minimum inhibitory concentration (MICs), S. aureus RN4220” value in the data set on S. aureus RN4220 was found to be 2 µg/mL.
As for RLKRWRLFRKR [Chain306], the “thermostability” value in data set [1] was “not hindered by pH or temperature even upto 45 °C for over 14 days”. Further, in data set [2], the “pH stability” value was “not hindered by pH”.
As for `CC[C@@H](C)[C@@H](NC(=O)[C@@H](CCSC)NC(=O)[C@@H](C)NC(=O)[C@@H](CCCNC(=N)N)NC(=O)[C@@H](Cc1c[nH]c2ccccc12)NC(=O)[C@@H](CCCCN)NC(=O)[C@H](N)CCCNC(=N)N)C(=O)N[C@H](CCCNC(=N)N)C(=O)N[C@H](CC(C)C)C(=O)N[C@H](Cc1c[nH]cn1)C(=O)N[C@H](C)C(=O)N[C@H](CCCCN)C(=O)N[C@H](Cc1c[nH]c2ccccc12)C(=O)N[C@H](CC(C)C)C(=O)N[C@H](CCCNC(=N)N)C(=O)N[C@H](CCCCN)C(=O)O` [105 D] (H-[dR][dK][dW][dR][dA][dM][dI][dR][dL][dH][dA][dK][dW][dL][dR][dK]-OH), the “Minimum inhibitory concentration (MICs), S. aureus COL + 4 μg/ml Ertapenem” value with MRSA strains was 2 µg/mL. Also, the “Minimum inhibitory concentration (MICs), S. aureus RN4220” value with S. aureus RN4220 was 16 µg/mL.
On the same counts, the results for `CC[C@@H](C)[C@@H](NC(=O)[C@@H](CCSC)NC(=O)[C@@H](C)NC(=O)[C@@H](CCCNC(=N)N)NC(=O)[C@@H](Cc1c[nH]c2ccccc12)NC(=O)[C@@H](CCCCN)NC(=O)[C@H](N)CCCNC(=N)N)C(=O)N[C@H](CCCNC(=N)N)C(=O)N[C@H](CC(C)C)C(=O)N[C@H](Cc1c[nH]cn1)C(=O)N[C@H](C)C(=O)N[C@H](CCCCN)C(=O)N[C@H](CCCNC(=N)N)C(=O)N[C@H](CC(C)C)C(=O)N[C@H](CCCNC(=N)N)C(=O)N[C@H](CCCCN)C(=O)O` [104 D] (H-[dR][dK][dW][dR][dA][dM][dI][dR][dL][dH][dA][dK][dR][dL][dR][dK]-OH) are 4 µg/mL and 64 µg/mL.
For RKWRAMIRLHAKWLRK [Compound 105] the same measures were 0.5 µg/mL and more than 64 µg/mL.
For RKWRAMIRLHAKRLRK [Chain104], the “side effects to humans as tested” value in the data set with human erythrocytes is reported as “little side effects to humans”. For the same molecule, the “thermostability” value in data set [1] was “not hindered by pH or temperature even upto 45 °C for over 14 days”. Also, the “pH stability” value in data set [2] is recorded as “not hindered by pH”.
Regarding KWIVWRWRFKR [Compound 201], the “Minimum inhibitory concentration (MICs), S. aureus COL + 4 μg/ml Ertapenem” value in the data set with MRSA strains is 0.5 µg/mL. For the same molecule, in the data set with S. aureus RN4220, the “Minimum inhibitory concentration (MICs), S. aureus RN4220” value is 64 µg/mL.
For the molecule RLKWFWLFRKR [Chain307], in the data set on human erythrocytes, the “side effects to humans as tested” value is recorded as “little side effects to humans”.

B1: En-MAP1: protein of 549 amino acids from an endophyte of Empetrum nigrum, GenBank accession number KC466596 (protein, listed as Empetrum nigrum)
chain: MRLVAHPVPDAPLYALMIKACSMGIPQPNDNLWKPRNPLLAKEEKTSKRGRTAPDTERALDLFREMTLRYNIRPTAEVYTAIIAACVKRDDMYDKGFGLFKKMVELERNRMSSEGHDSTSFAPTRATYNALLRGCARNKDLLRARWILAEMLRTAQAKWQEFMEKSKKGEEGVQEWELLEVEEMRPDTNTMAFLFYTYASHTTSSKAVPETEGKKELEGKAEERASEVTSVSPVSEPPEPMDESKLVYSLPTSSQAILREVTSLLDRIKSDQGQQSNLLSSVQINSKLLNSYIAVLSAHCRSSQVVERISEVVVGTKENPKSLFEETGTSVNGYTCFTVIDACGMMEHSPDTYHLACEMWQRWLSLVENATFHRENPLKAKEIGLDSRTISDCWSAMIRLHAKYNQVDEAMKLVHEFARLYPPASLFNSLTFEPSSTSSSSLSPRKGVQEISPLFSSTSLTHSIRGRDISRIQNTMSQDPTLQFRAVQILHLRLVELETRPKDLAYLSWLLKSYEHQLQPKRPKSLQGDLFTSRQAAYNRIVQQRTSSR
As for B1, the “antibacterial activity against S. aureus” value with S. aureus (expressed, folded protein) was “no activity was observed”; with S. aureus (folded full protein digested with trypsin, data not shown) it was “antibacterial activity was observed for up to two hours after digestion”; in the data set on S. aureus (trypsin digest of the unfolded protein) it was “No activity was detected”.
